Laboratory results as given in patent US11639350B2, “Heteroaryldihydropyrimidine derivatives and methods of treating hepatitis B infections” (Janssen Pharmaceutica NV, priority 2018, dated 2023).
Read-outs that look alike come from different tables or passages of the source.

Key:
[1] = Cytotoxicity determination in HepG2.2.15 cells (CCK-8); assay type: cell-based; settings: human, 6 days of compound treatment, CCK-8, highest concentration 100 μM
Procedure, shortened: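 CC50 is from CCK-8 absorbance (450 nm, 630 nm reference) after 2.5 h with reagent. Before that, compounds were applied for six days, top concentration 100 μM, eight threefold dilutions, one mid-course medium change, to stably HBV-integrated HepG2.2.15 cells plated at 5,000/well in 2% FBS.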

[2] = system: HBV; assay: HBV inhibitory activity: HBV DNA in the culture medium of HepG2.2.15 cells by q-PCR; assay type: cell-based; settings: HepG2.2.15 cells, 6 days of compound treatment, HBV DNA in culture medium by q-PCR, highest concentration 10 μM, read-out: EC50
Procedure, shortened: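 Supernatant HBV DNA quantified by q-PCR after a 6-day compound exposure, with one mid-course medium change, of HepG2.2.15 cells (stably integrated HBV; 40,000 per well, 2% FBS). Eight-point 3-fold series topped at 10 μM for antiviral EC50; separate plates of 5,000 cells per well with 100 μM top give CC50.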

[3] = Hepatitis B virus, HepG2.2.15, 144 h

Row | SMILES | CC50 at 6 days [1] [nM] | EC50 [2, 3] [nM] | EC50 [2] [nM]
1 | COC(=O)C1=C(C2CC3CCC(C2)N3S(C)(=O)=O)NC(c2nccs2)=NC1c1cccc(F)c1Cl (single isomer, unassigned) [Compound 39B, 4-(2-Chloro-3-fluoro-phenyl)-6-(8-methanesulfonyl-8-aza-bicyclo[3.2.1]oct-3-yl)-2-thiazol-2-yl-1,4-dihydro-pyrimidine-5-carboxylic Acid Methyl Ester] | 30600 | 101 | 
2 | COC(=O)C1=C(C2CCN(S(C)(=N)=O)CC2)NC(c2nccs2)=NC1c1ccc(F)c(F)c1Cl (stereo not drawn) [Compound 205A, methyl 4-(2-chloro-3,4-difluorophenyl)-6-(1-(S-methylsulfonimidoyl)piperidin-4-yl)-2-(thiazol-2-yl)-1,4-dihydropyrimidine-5-carboxylate] | 42300 |  | 7
3 | COC(=O)C1=C(C2CCN(S(=O)(=O)CC(O)CO)CC2)NC(c2nccs2)=NC1c1ccc(F)cc1Cl (single isomer, unassigned) [Compound 305A, Methyl 4-(2-chloro-4-fluorophenyl)-6-(1-((2,3-dihydroxypropyl)sulfonyl)piperidin-4-yl)-2-(thiazol-2-yl)-1,4-dihydropyrimidine-5-carboxylate] | 36200 | 47 | 
4 | COC(=O)C1=C([C@H]2CC[C@H](NS(=O)(=O)C3CN(C)C3)CC2)NC(c2nccs2)=NC1c1ccc(F)c(F)c1Cl (single isomer, unassigned) [Compound 251B, (trans)-Methyl 4-(2-chloro-3,4-difluorophenyl)-6-(4-(1-methylazetidine-3-sulfonamido)cyclohexyl)-2-(thiazol-2-yl)-1,4-dihydropyrimidine-5-carboxylate] | 8700 | 103 | 
5 | CCOC(=O)C1=C(C2CCN(S(C)(=O)=O)CC2)NC(c2ncc(F)cc2F)=NC1c1ccc(F)cc1Cl (single isomer, unassigned) [Compound 56A, Ethyl 4-(2-chloro-4-fluorophenyl)-2-(3,5-difluoropyridin-2-yl)-6-(1-(methylsulfonyl)piperidin-4-yl)-1,4-dihydropyrimidine-5-carboxylate] | > 10000 | 513 | 
6 | COC(=O)C1=C(C2CCN(C(=O)CO)CC2)NC(c2nccs2)=NC1c1ccc(F)cc1Cl (single isomer, unassigned) [Compound 122B, Methyl 4-(2-chloro-4-fluorophenyl)-6-(1-(2-hydroxyacetyl)-piperidin-4-yl)-2-(thiazol-2-yl)-1,4-dihydropyrimidine-5-carboxylate] | 31600 | 57 | 
7 | COC(=O)C1=C(C2CCN(S(C)(=O)=O)CC2)NC(c2nccs2)=NC1c1ccc(F)cc1Cl (stereo not drawn) [Compound 103, Methyl 4-(2-chloro-4-fluorophenyl)-6-(1-(methylsulfonyl)-piperidin-4-yl)-2-(thiazol-2-yl)-1,4-dihydropyrimidine-5-carboxylate] | 87000 | 501 | 
8 | CCOC(=O)C1=C([C@H]2CC[C@H](C(=O)O)CC2)NC(c2nccs2)=NC1c1ccc(F)cc1Br (stereo partly drawn) [Compound 156] | 34900 | 71 | 
9 | CCOC(=O)C1=C(C2CCN(S(=O)(=O)[C@H]3C[C@@H](C(=O)O)C3)CC2)NC(c2nccs2)=NC1c1cccc(F)c1Br (relative stereo) [Compound 339D, (cis)-3-((4-(6-(2-Bromo-3-fluorophenyl)-5-(ethoxycarbonyl)-2-(thiazol-2-yl)-3,6-dihydropyrimidin-4-yl)piperidin-1-yl)sulfonyl)cyclobutanecarboxylic Acid] | 32700 | 99 | 
10 | CCOC(=O)C1=C(C2CCCCC2)NC(c2nccs2)=NC1c1ccc(F)cc1Cl (single isomer, unassigned) [Compound 47A, Ethyl 4-(2-chloro-4-fluorophenyl)-6-cyclohexyl-2-(thiazol-2-yl)-1,4-dihydro-pyrimidine-5-carboxylate] | 30900 | 276 | 
11 | COC(=O)C1=C(C2CC(C(=O)O)C2)NC(c2nccs2)=NC1c1ccc(F)cc1Cl (stereo not drawn) [Compound 86, 6-(3-Carboxy-cyclobutyl)-4-(2-chloro-4-fluoro-phenyl)-2-thiazol-2-yl-1,4-dihydro-pyrimidine-5-carboxylic acid methyl ester] | 21600 | 110 | 
12 | COC(=O)C1=C(C2CC(O)C2)NC(c2nccs2)=NC1c1ccc(F)cc1Cl (stereo not drawn) [Compound 295, Methyl 4-(2-chloro-4-fluorophenyl)-6-(3-hydroxycyclobutyl)-2-(thiazol-2-yl)-1,4-dihydropyrimidine-5-carboxylate] | 64200 | 215 | 
13 | COC(=O)C1=C([C@H]2CC[C@@H](S(=O)(=O)N(C)C)CC2)NC(c2nccs2)=NC1c1ccc(F)c(F)c1Cl (single isomer, unassigned) [Compound 233B, (cis)-Methyl 4-(2-chloro-3,4-difluorophenyl)-6-(4-(N,N-dimethylsulfamoyl)cyclohexyl)-2-(thiazol-2-yl)-1,4-dihydropyrimidine-5-carboxylate] | 6300 | 56 | 
14 | COC(=O)C1=C(C2CCN(S(=O)(=O)c3cnn(C[C@H](C)O)c3)CC2)NC(c2nccs2)=NC1c1ccc(F)cc1Cl (stereo partly drawn) [Compound 360D, methyl 4-(2-chloro-4-fluorophenyl)-6-(1-((1-((S)-2-hydroxypropyl)-1H-pyrazol-4-yl)sulfonyl)piperidin-4-yl)-2-(thiazol-2-yl)-1,4-dihydropyrimidine-5-carboxylate] | 20400 | 105 | 
15 | CCOC(=O)C1=C(C2CCN(S(=O)(=O)c3cnn(CCCCC(=O)O)c3)CC2)NC(c2nccs2)=NC1c1ccc(F)c(F)c1Cl (stereo not drawn) [Compound 463, 5-(4-((4-(6-(2-Chloro-3,4-difluorophenyl)-5-(ethoxycarbonyl)-2-(thiazol-2-yl)-3,6-dihydropyrimidin-4-yl)piperidin-1-yl)sulfonyl)-1H-pyrazol-1-yl)pentanoic acid] | 12200 | 31 | 
16 | COC(=O)C1=C(C2CCOCC2)NC(c2nccs2)=NC1c1ccc(F)cc1Cl (stereo not drawn) [Compound 51, Methyl 4-(2-chloro-4-fluorophenyl)-6-(tetrahydro-2H-pyran-4-yl)-2-(thiazol-2-yl)-1,4-dihydropyrimidine-5-carboxylate] | 9900 | 112 | 
17 | COC(=O)C1=C(C2CCCC(NS(C)(=O)=O)CC2)NC(c2nccs2)=NC1c1ccc(F)cc1Cl (stereo not drawn) [Compound 190, Methyl 4-(2-chloro-4-fluorophenyl)-6-(4-(methylsulfonamido)-cycloheptyl)-2-(thiazol-2-yl)-1,4-dihydropyrimidine-5-carboxylate] | 15000 | 78 | 
18 | COC(=O)C1=C(C2CCN(S(C)(=O)=O)CC2)NC(c2nccs2)=NC1c1ccc(Cl)c(F)c1 (single isomer, unassigned) [Compound 124B, 4-(4-Chloro-3-fluoro-phenyl)-6-(1-methanesulfonyl-piperidin-4-yl)-2-thiazol-2-yl-1,4-dihydro-pyrimidine-5-carboxylic Acid Methyl Ester] | 6600 | 85 | 
